The values below come from patent publication US12486253B2, “Therapeutics for the degradation of mutant BRAF” (C4 THERAPEUTICS, INC., priority 2021, dated 2025).

Structures are written as SMILES.

This assay addresses BRAF V600E (Homo sapiens, UniProt P15056, V600E). Nature of the assay: HiBiT cellular BRAF^V600E degradation assay. Type of assay: cell-based. The conditions noted are these: A375.10 cells, 24 h; for DC50: concentration at which 50% of total cellular BRAF^V600E is degraded; for Emax: residual protein remaining in the cell, read-out: HiBit 24 h Emax. A general note: With HiBiT, luminescence reflects the tagged protein that the partner subunit can reach.

Sequence of BRAF V600E (P15056 whole entry V600E): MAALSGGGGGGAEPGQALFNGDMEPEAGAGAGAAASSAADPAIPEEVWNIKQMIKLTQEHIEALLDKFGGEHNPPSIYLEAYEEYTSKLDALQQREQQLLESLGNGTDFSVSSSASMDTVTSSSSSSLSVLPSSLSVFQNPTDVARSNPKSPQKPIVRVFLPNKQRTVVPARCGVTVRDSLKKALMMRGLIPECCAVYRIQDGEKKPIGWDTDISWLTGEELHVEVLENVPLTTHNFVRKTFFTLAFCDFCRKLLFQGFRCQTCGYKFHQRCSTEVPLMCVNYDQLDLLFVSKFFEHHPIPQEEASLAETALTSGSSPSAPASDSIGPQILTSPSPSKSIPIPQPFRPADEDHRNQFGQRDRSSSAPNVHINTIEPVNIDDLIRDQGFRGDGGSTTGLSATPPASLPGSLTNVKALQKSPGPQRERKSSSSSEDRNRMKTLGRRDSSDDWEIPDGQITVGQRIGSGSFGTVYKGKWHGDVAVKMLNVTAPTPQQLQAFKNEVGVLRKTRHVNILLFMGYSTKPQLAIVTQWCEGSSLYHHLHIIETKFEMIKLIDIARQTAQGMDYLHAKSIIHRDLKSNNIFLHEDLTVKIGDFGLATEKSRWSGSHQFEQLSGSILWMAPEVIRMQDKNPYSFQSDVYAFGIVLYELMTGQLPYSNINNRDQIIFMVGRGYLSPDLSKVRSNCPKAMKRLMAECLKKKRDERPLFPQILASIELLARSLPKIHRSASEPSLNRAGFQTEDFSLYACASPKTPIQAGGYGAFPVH

Turning to `CCN(C)S(=O)(=O)Nc1ccc(F)c(Oc2ccc3ncn([C@H]4CCC5(CCN(C(=O)CC6(O)CCN(c7cc8c(cc7F)c(N7CCC(=O)NC7=O)nn8C)CC6)CC5)C4)c(=O)c3c2)c1C#N` [Example 159, 6-[2-cyano-3-[[ethyl(methyl)sulfamoyl]amino]-6-fluorophenoxy]-3-[(3S)-8-[2-[1-[3-(2,4-dioxo-1,3-diazinan-1-yl)-5-fluoro-1-methylindazol-6-yl]-4-hydroxypiperidin-4-yl]acetyl]-8-azaspiro [4.5]decan-3-yl]-4-oxoquinazoline], half-maximal degradation (DC50) was put at 6.98 nM and the maximal effect (Emax) (as a rule, the greatest response seen or fitted, relative to the assay's reference) is 18.8%.
For the molecule `CCN(C)S(=O)(=O)Nc1ccc(F)c(Oc2ccc3ncn([C@H]4CCC5(CCN(C(=O)CN6CCC(c7ccc8c(C9CCC(=O)NC9=O)nn(C)c8c7)C(F)(F)C6)CC5)C4)c(=O)c3c2)c1C#N` (stereo partly drawn) [Example 160, 6-[2-cyano-3-[[ethyl(methyl)sulfamoyl]amino]-6-fluorophenoxy]-3-[(3S)-8-[2-[4-[3-(2,6-dioxopiperidin-3-yl)-1-methylindazol-6-yl]-3,3-difluoropiperidin-1-yl]acetyl]-8-azaspiro[4.5]decan-3-yl]-4-oxoquinazoline], half-maximal degradation (DC50) was put at 22.2 nM and the Emax is 23.9%.
For `CCN(C)S(=O)(=O)Nc1ccc(F)c(Oc2ccc3ncn([C@H]4CCC5(CCN(C(=O)CN6CCN(c7cc8c(cc7F)c(N7CCC(=O)NC7=O)nn8C)CC6)CC5)C4)c(=O)c3c2)c1C#N` [Example 162, 6-[2-cyano-3-[[ethyl(methyl)sulfamoyl]amino]-6-fluorophenoxy]-3-[(3S)-8-[2-[4-[3-(2,4-dioxo-1,3-diazinan-1-yl)-5-fluoro-1-methylindazol-6-yl]piperazin-1-yl]acetyl]-8-azaspiro [4.5]decan-3-yl]-4-oxoquinazoline], the DC50 (in general, the concentration at which degradation of the target reaches its halfway point) was found to be 17.3 nM and the maximal effect (Emax) was 14.5%.
In the case of `CCN(C)S(=O)(=O)Nc1ccc(F)c(Oc2ccc3ncn(C4CCC5(CC4)CCN(C(=O)CN4CCN(c6cc7c(cc6F)c(N6CCC(=O)NC6=O)nn7C)CC4)CC5)c(=O)c3c2)c1C#N` [Example 163, 9-[6-[2-cyano-3-[[ethyl(methyl)sulfamoyl]amino]-6-fluorophenoxy]-4-oxoquinazolin-3-yl]-3-[2-[4-[3-(2,4-dioxo-1,3-diazinan-1-yl)-5-fluoro-1-methylindazol-6-yl]piperazin-1-yl]acetyl]-3-azaspiro[5.5]undecane], the DC50 was 27.6 nM and the Emax amounted to 16.2%.
Regarding `CCN(C)S(=O)(=O)Nc1ccc(F)c(Oc2ccc3ncn([C@H]4COC5(CCN(C(=O)CN6CCN(c7cc8c(cc7F)c(N7CCC(=O)NC7=O)nn8C)CC6)CC5)C4)c(=O)c3c2)c1C#N` [Example 164, (3R)-3-[6-[2-cyano-3-[[ethyl(methyl)sulfamoyl]amino]-6-fluorophenoxy]-4-oxoquinazolin-3-yl]-8-[2-[4-[3-(2,4-dioxo-1,3-diazinan-1-yl)-5-fluoro-1-methylindazol-6-yl]piperazin-1-yl]acetyl]-1-oxa-8-azaspiro[4.5]decane], it took 26.6 nM to reach half-maximal degradation (DC50) and the Emax was 15.6%.
Turning to `Cn1nc(C2CCC(=O)NC2=O)c2ccc(C3CCN(CC(=O)N4CCC5(CC4)C[C@@H](n4cnc6ccc(Oc7c(F)ccc(NS(=O)(=O)N8CC[C@@H](F)C8)c7C#N)cc6c4=O)CO5)CC3)cc21` (stereo partly drawn) [Example 165, (3R)—N-[2-cyano-3-[3-[(3R)-8-[2-[4-[3-(2,6-dioxopiperidin-3-yl)-1-methylindazol-6-yl]piperidin-1-yl]acetyl]-1-oxa-8-azaspiro[4.5]decan-3-yl]-4-oxoquinazolin-6-yl]oxy-4-fluorophenyl]-3-fluoropyrrolidine-1-sulfonamide], the DC50 worked out at 100 nM and the Emax came out at 17.8%.
On to `CCN(C)S(=O)(=O)Nc1ccc(F)c(Oc2ccc3ncn([C@H]4CCC5(CCN(C(=O)CN6CCC(c7ccc8c(C9CCC(=O)NC9=O)nn(C)c8c7)CC6)CC5)C4)c(=O)c3c2)c1Cl` (stereo partly drawn) [Example 166, 6-[2-chloro-3-[[ethyl(methyl)sulfamoyl]amino]-6-fluorophenoxy]-3-[(3S)-8-[2-[4-[3-(2,6-dioxopiperidin-3-yl)-1-methylindazol-6-yl]piperidin-1-yl]acetyl]-8-azaspiro[4.5]decan-3-yl]-4-oxoquinazoline], for which the DC50 amounted to 34.5 nM and the maximal effect (Emax) turned out to be 23.5%.
Turning to `Cn1nc(C2CCC(=O)NC2=O)c2ccc(C3CCN(CC(=O)N4CCC5(CC4)C[C@@H](n4cnc6ccc(Oc7c(F)ccc(NS(=O)(=O)C8CCCC8)c7C#N)cc6c4=O)CO5)CC3)cc21` (stereo partly drawn) [Example 167, N-[2-cyano-3-[3-[(3R)-8-[2-[4-[3-(2,6-dioxopiperidin-3-yl)-1-methylindazol-6-yl]piperidin-1-yl]acetyl]-1-oxa-8-azaspiro[4.5]decan-3-yl]-4-oxoquinazolin-6-yl]oxy-4-fluorophenyl]cyclopentanesulfonamide], the DC50 was determined as 42.6 nM and the maximal effect (Emax) is 16.5%.
Take `CC(C)S(=O)(=O)Nc1ccc(F)c(Oc2ccc3ncn([C@H]4COC5(CCN(C(=O)CN6CCC(c7ccc8c(C9CCC(=O)NC9=O)nn(C)c8c7)CC6)CC5)C4)c(=O)c3c2)c1C#N` (stereo partly drawn) [Example 168, N-[2-cyano-3-[3-[(3R)-8-[2-[4-[3-(2,6-dioxopiperidin-3-yl)-1-methylindazol-6-yl]piperidin-1-yl]acetyl]-1-oxa-8-azaspiro[4.5]decan-3-yl]-4-oxoquinazolin-6-yl]oxy-4-fluorophenyl]propane-2-sulfonamide]: the DC50 was 36.5 nM and the maximal response (Emax) was 14.1%.
For `CCN(C)S(=O)(=O)Nc1ccc(F)c(Oc2ccc3ncn([C@H]4COC5(CCN(C(=O)CN6CC(c7ccc8c(C9CCC(=O)NC9=O)nn(C)c8c7)C6)CC5)C4)c(=O)c3c2)c1C#N` (stereo partly drawn) [Example 171, (3R)-3-[6-[2-cyano-3-[[ethyl(methyl)sulfamoyl]amino]-6-fluorophenoxy]-4-oxoquinazolin-3-yl]-8-[2-[3-[3-(2,6-dioxopiperidin-3-yl)-1-methylindazol-6-yl]azetidin-1-yl]acetyl]-1-oxa-8-azaspiro[4.5]decane], the DC50 stood at 30.7 nM and the Emax stood at 7.11%.
With `CCN(C)S(=O)(=O)Nc1ccc(F)c(Oc2ccc3ncn([C@H]4CCC5(CCN(C(=O)CC6(O)CCN(c7ccc8c(N9CCC(=O)NC9=O)nn(C)c8c7F)CC6)CC5)C4)c(=O)c3c2)c1C#N` [Example 172, 6-[2-cyano-3-[[ethyl(methyl)sulfamoyl]amino]-6-fluorophenoxy]-3-[(3S)-8-[2-[1-[3-(2,4-dioxo-1,3-diazinan-1-yl)-7-fluoro-1-methylindazol-6-yl]-4-hydroxypiperidin-4-yl]acetyl]-8-azaspiro[4.5]decan-3-yl]-4-oxoquinazoline], the DC50 came to 28.9 nM and the Emax was 25.1%.
Take `CCN(C)S(=O)(=O)Nc1ccc(F)c(Oc2ccc3ncn([C@H]4COC5(CCN(C(=O)CC6(O)CCN(c7ccc8c(N9CCC(=O)NC9=O)nn(C)c8c7F)CC6)CC5)C4)c(=O)c3c2)c1C#N` [Example 173, (3R)-3-[6-[2-cyano-3-[[ethyl(methyl)sulfamoyl]amino]-6-fluorophenoxy]-4-oxoquinazolin-3-yl]-8-[2-[1-[3-(2,4-dioxo-1,3-diazinan-1-yl)-7-fluoro-1-methylindazol-6-yl]-4-hydroxypiperidin-4-yl]acetyl]-1-oxa-8-azaspiro[4.5]decane]: the 50% degradation concentration (DC50) is 192 nM and the maximum response (Emax) was found to be 46%.
`COC1CCN(S(=O)(=O)Nc2ccc(F)c(Oc3ccc4ncn([C@H]5COC6(CCN(C(=O)CC7(O)CCN(c8cc9c(cc8F)c(N8CCC(=O)NC8=O)nn9C)CC7)CC6)C5)c(=O)c4c3)c2C#N)C1` (stereo partly drawn) [Example 175, N-[2-cyano-3-[3-[(3R)-8-[2-[1-[3-(2,4-dioxo-1,3-diazinan-1-yl)-5-fluoro-1-methylindazol-6-yl]-4-hydroxypiperidin-4-yl]acetyl]-1-oxa-8-azaspiro[4.5]decan-3-yl]-4-oxoquinazolin-6-yl]oxy-4-fluorophenyl]-3-methoxypyrrolidine-1-sulfonamide]: it took 31.2 nM to reach half-maximal degradation (DC50) and the Emax came to 31.1%.
For the molecule `CO[C@H]1CCN(S(=O)(=O)Nc2ccc(F)c(Oc3ccc4ncn([C@H]5COC6(CCN(C(=O)CC7(O)CCN(c8cc9c(cc8F)c(N8CCC(=O)NC8=O)nn9C)CC7)CC6)C5)c(=O)c4c3)c2C#N)C1` [Example 176, (3S)—N-[2-cyano-3-[3-[(3R)-8-[2-[1-[3-(2,4-dioxo-1,3-diazinan-1-yl)-5-fluoro-1-methylindazol-6-yl]-4-hydroxypiperidin-4-yl]acetyl]-1-oxa-8-azaspiro[4.5]decan-3-yl]-4-oxoquinazolin-6-yl]oxy-4-fluorophenyl]-3-methoxypyrrolidine-1-sulfonamide], it took 20.5 nM to reach half-maximal degradation (DC50) and the Emax was 24.8%.
As for `CO[C@@H]1CCN(S(=O)(=O)Nc2ccc(F)c(Oc3ccc4ncn([C@H]5COC6(CCN(C(=O)CC7(O)CCN(c8cc9c(cc8F)c(N8CCC(=O)NC8=O)nn9C)CC7)CC6)C5)c(=O)c4c3)c2C#N)C1` [Example 177, (3R)—N-[2-cyano-3-[3-[(3R)-8-[2-[1-[3-(2,4-dioxo-1,3-diazinan-1-yl)-5-fluoro-1-methylindazol-6-yl]-4-hydroxypiperidin-4-yl]acetyl]-1-oxa-8-azaspiro[4.5]decan-3-yl]-4-oxoquinazolin-6-yl]oxy-4-fluorophenyl]-3-methoxypyrrolidine-1-sulfonamide], it took 18 nM to reach half-maximal degradation (DC50) and the Emax is 22.3%.
On to `CCN(C)S(=O)(=O)Nc1ccc(F)c(Oc2ccc3ncn(C4COC5(CCN(C(=O)CC6(O)CCN(c7cc8c(cc7F)c(N7CCC(=O)NC7=O)nn8C)CC6)CC5)C4)c(=O)c3c2N(C)C)c1C#N` (centres unmarked) [Example 179, 3-[6-[2-cyano-3-[[ethyl(methyl)sulfamoyl]amino]-6-fluorophenoxy]-5-(dimethylamino)-4-oxoquinazolin-3-yl]-8-[2-[1-[3-(2,4-dioxo-1,3-diazinan-1-yl)-5-fluoro-1-methylindazol-6-yl]-4-hydroxypiperidin-4-yl]acetyl]-1-oxa-8-azaspiro[4.5]decane], for which half-maximal degradation (DC50) was put at 27.8 nM and the Emax was found to be 19.3%.
